According to patent US10709707B2, “Methods of treating ocular conditions” (Oyster Point Pharma, Inc., priority 2016, dated 2020):
Like-named read-outs stand apart in the source and are kept apart here.

Key:
[1] = Stability study of drug substance; format: physicochemical
Protocol: A previous cGMP lot of Compound 1 was manufactured.
There was a slight decrease in assay value below the 98% specification at 6 month 40° C./75% RH and 9 month 30° C./65% RH. However, based on the minimal change at accelerated conditions and the stability of the real time data, the drug substance is currently considered to be stable for at least 36 months.

a4b4 = a4b4 (Homo sapiens, UniProt P30926+P43681); experiment: Receptor binding a4b4
[2] = Single dose pharmacokinetics, monkey; format: in vivo, Cyno monkey; conditions: plasma; for AUC(0-t): t = 168 h, read-out: AUC0-1; for AUC(0-inf): read-out: AUCinf, unchanged parent
Protocol: In a monkey study, [^14C]-Compound 1 was given at 10 mg/kg orally or 5 mg/kg by iv infusion. Oral bioavailability in this study was about 30%.

[3] = 7-day pilot intranasal toxicity and toxicokinetic study in rats; conditions: Female, intranasal TID
Protocol: The study design was as follows:
The following parameters and end points were evaluated in this study; clinical signs, body weights, body weight gain, food consumption, ophthalmology, toxicokinetic parameters, gross necropsy findings, organ weights, and histopathologic examination of select tissues, including nasal cavity at levels I-IV and detailed ocular histopathology for all dose groups: histopathology for brain, pharynx, larynx, trachea, lung, and select target tissues (i.e., adrenal gland, liver, and spleen) that were identified in a GLP 13-week oral toxicity study in rats (DSE 2004-0356) in group 1 and 4 animals, and gross lesions.

[4] = cynomolgus monkey, Cyno monkey, 5 mg/kg [14C]-Compound 1, 20-minute intravenous
[5] = cynomolgus monkey, Cyno monkey, 10 mg/kg [14C]-Compound 1, oral

Chain of a4b4 (P43681 29-627 limits assumed): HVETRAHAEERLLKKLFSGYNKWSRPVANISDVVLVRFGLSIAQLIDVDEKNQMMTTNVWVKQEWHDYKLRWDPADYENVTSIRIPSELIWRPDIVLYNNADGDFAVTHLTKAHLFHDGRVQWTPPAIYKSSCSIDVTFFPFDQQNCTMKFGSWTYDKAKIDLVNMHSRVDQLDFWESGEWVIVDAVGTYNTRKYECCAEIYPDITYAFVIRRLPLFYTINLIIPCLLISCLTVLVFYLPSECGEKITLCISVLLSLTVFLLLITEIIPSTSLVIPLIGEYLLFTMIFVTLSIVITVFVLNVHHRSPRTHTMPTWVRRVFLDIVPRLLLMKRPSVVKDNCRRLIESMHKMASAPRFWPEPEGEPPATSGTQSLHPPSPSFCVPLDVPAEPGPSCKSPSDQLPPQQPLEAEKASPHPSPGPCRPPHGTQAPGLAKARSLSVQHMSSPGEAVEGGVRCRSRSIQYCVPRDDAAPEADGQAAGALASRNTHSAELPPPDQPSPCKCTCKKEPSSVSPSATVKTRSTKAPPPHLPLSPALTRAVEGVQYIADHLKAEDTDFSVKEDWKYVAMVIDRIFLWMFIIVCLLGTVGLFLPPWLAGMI
Chain of a4b4 (P30926 22-498): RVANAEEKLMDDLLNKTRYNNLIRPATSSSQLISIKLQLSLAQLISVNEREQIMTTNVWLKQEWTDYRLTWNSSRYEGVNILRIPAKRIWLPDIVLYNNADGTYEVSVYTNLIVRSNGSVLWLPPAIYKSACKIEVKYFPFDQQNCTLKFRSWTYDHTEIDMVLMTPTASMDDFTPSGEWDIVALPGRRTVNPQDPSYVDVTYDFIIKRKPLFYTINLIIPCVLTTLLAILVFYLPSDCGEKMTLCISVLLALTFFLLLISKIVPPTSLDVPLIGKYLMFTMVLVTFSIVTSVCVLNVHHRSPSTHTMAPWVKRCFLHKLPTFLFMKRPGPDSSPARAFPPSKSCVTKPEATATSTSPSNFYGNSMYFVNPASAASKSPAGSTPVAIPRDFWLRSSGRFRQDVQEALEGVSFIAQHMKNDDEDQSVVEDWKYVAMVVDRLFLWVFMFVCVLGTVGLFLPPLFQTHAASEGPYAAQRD

Which results are given for `C(=C\[C@H]1CCNC1)/c1cncnc1` [Compound 1, (R)-5-((E)-2-pyrrolidin-3-ylvinyl)pyrimidine]?
assay value ([1]; 6 month, 40° C./75% RH): < 98%; assay value ([1]; 9 month, 30° C./65% RH): < 98%; Assay (HPLC-UV) ([1]; 25° C./60% RH, 1 M): 102.4%; Related Substances, RRT = 0.26 ([1]; 25° C./60% RH, 1 M): 0.09 % w/w; Total Related Substances ([1]; 25° C./60% RH, 1 M): 0.09%; Water Content (Karl Fischer) ([1]; 25° C./60% RH, 1 M): 12.10 % w/w; Assay (HPLC-UV) ([1]; 25° C./60% RH, 3 M): 100.2%; Related Substances, RRT = 0.26 ([1]; 25° C./60% RH, 3 M): 0.09 % w/w; Total Related Substances ([1]; 25° C./60% RH, 3 M): 0.09%; Water Content (Karl Fischer) ([1]; 25° C./60% RH, 3 M): 12.25 % w/w; Assay (HPLC-UV) ([1]; 25° C./60% RH, 6 M): 98.9%; Total Related Substances ([1]; 25° C./60% RH, 6 M): 0.05%; Water Content (Karl Fischer) ([1]; 25° C./60% RH, 6 M): 12.04 % w/w; Assay (HPLC-UV) ([1]; 25° C./60% RH, 9 M): 99.7%; Related Substances, RRT = 0.26 ([1]; 25° C./60% RH, 9 M): 0.09 % w/w; Total Related Substances ([1]; 25° C./60% RH, 9 M): 0.12%; Water Content (Karl Fischer) ([1]; 25° C./60% RH, 9 M): 11.52 % w/w; Assay (HPLC-UV) ([1]; 25° C./60% RH, 12 M): 101.2%; Chiral Purity ([1]; 25° C./60% RH, 12 M): 100 % ee; Related Substances, RRT = 0.18 ([1]; 25° C./60% RH, 12 M): 0.10 % w/w; Related Substances, RRT = 0.88 ([1]; 25° C./60% RH, 12 M): 0.05 % w/w; Total Related Substances ([1]; 25° C./60% RH, 12 M): 0.16%; Water Content (Karl Fischer) ([1]; 25° C./60% RH, 12 M): 11.52 % w/w; Assay (HPLC-UV) ([1]; 25° C./60% RH, 18 M): 100.4%; Related Substances, RRT = 0.26 ([1]; 25° C./60% RH, 18 M): 0.07 % w/w; Total Related Substances ([1]; 25° C./60% RH, 18 M): 0.07%; Water Content (Karl Fischer) ([1]; 25° C./60% RH, 18 M): 11.50 % w/w; Assay (HPLC-UV) ([1]; 25° C./60% RH, 24 M): 100.0%; Chiral Purity ([1]; 25° C./60% RH, 24 M): 100 % ee; Related Substances, RRT = 0.26 ([1]; 25° C./60% RH, 24 M): 0.05 % w/w; Total Related Substances ([1]; 25° C./60% RH, 24 M): 0.05%; Water Content (Karl Fischer) ([1]; 25° C./60% RH, 24 M): 11.42 % w/w; Assay (HPLC-UV) ([1]; 25° C./60% RH, 36 M): 99.7%; Chiral Purity ([1]; 25° C./60% RH, 36 M): 100 % ee; Related Substances, RRT = 0.26 ([1]; 25° C./60% RH, 36 M): 0.04 % w/w; Total Related Substances ([1]; 25° C./60% RH, 36 M): 0.04%; Water Content (Karl Fischer) ([1]; 25° C./60% RH, 36 M): 11.53 % w/w; Assay (HPLC-UV) ([1]; 25° C./60% RH, Initial): 100.9%; Chiral Purity ([1]; 25° C./60% RH, Initial): 100 % ee; Related Substances, RRT = 0.26 ([1]; 25° C./60% RH, Initial): 0.05 % w/w; Total Related Substances ([1]; 25° C./60% RH, Initial): 0.05%; Water Content (Karl Fischer) ([1]; 25° C./60% RH, Initial): 11.36 % w/w; time for which drug substance is considered stable ([1]; real time 25° C./60% RH data): at least 36 months; Ki (a4b4): 680 nM; Tmax [2, 4]: 0.333 h; AUC(0-t) [2, 4]: 1530 ng·h/mL; half-life ([2]; cynomolgus monkey, Cyno monkey, 5 mg/kg [14C]-Compound 1, 20-minute intravenous, read-out: t1/2 (converted)): 2.1 h; Tmax [2, 5]: 2.25 h; AUC(0-t) [2, 5]: 942 ng·h/mL; bioavailability ([2]; cynomolgus monkey, Cyno monkey, 10 mg/kg [14C]-Compound 1, oral, read-out: F (oral bioavailability)): 31.1%; half-life ([2]; cynomolgus monkey, Cyno monkey, 10 mg/kg [14C]-Compound 1, oral, read-out: t1/2 (converted)): 1.9 h; AUC(0-inf) ([2]; cynomolgus, 5 mg/kg iv infusion): 1530 ng·h/mL; Cmax ([2]; cynomolgus, Cyno monkey, 5 mg/kg [14C]-Compound 1, 20-minute intravenous): 2030 ng/mL; Cmax ([2]; cynomolgus, Cyno monkey, 10 mg/kg [14C]-Compound 1, oral): 254 ng/mL; bioavailability ([2]; cynomolgus, oral, [14C]-Compound 1, 10 mg/kg orally vs 5 mg/kg iv infusion, read-out: Oral bioavailability): ~30%; AUC(0-inf) ([2]; cynomolgus, po, 10 mg/kg orally): 969 ng·h/mL; half-life ([2]; cynomolgus, po, 10 mg/kg orally, read-out: half-life, unchanged parent (converted)): 1.9 h; C1 (peak concentration following 1st instillation) ([3]; Day 1, 0.9 mg/day (0.5%)): 26.1 ng/mL; C2 (peak concentration following 2nd instillation) ([3]; Day 1, 0.9 mg/day (0.5%)): 34.8 ng/mL; C3 (peak concentration following 3rd instillation) ([3]; Day 1, 0.9 mg/day (0.5%)): 34.9 ng/mL; DN AUC0-t (dose-normalized) ([3]; Day 1, 0.9 mg/day (0.5%)): 154 (ng*h/mL)/(mg); C1 (peak concentration following 1st instillation) ([3]; Day 1, 3.6 mg/day (2%)): 50.2 ng/mL; C2 (peak concentration following 2nd instillation) ([3]; Day 1, 3.6 mg/day (2%)): 119 ng/mL; C3 (peak concentration following 3rd instillation) ([3]; Day 1, 3.6 mg/day (2%)): 278 ng/mL; DN AUC0-t (dose-normalized) ([3]; Day 1, 3.6 mg/day (2%)): 174 (ng*h/mL)/(mg); C1 (peak concentration following 1st instillation) ([3]; Day 1, 10.8 mg/day (6%)): 326 ng/mL; C2 (peak concentration following 2nd instillation) ([3]; Day 1, 10.8 mg/day (6%)): 481 ng/mL; C3 (peak concentration following 3rd instillation) ([3]; Day 1, 10.8 mg/day (6%)): 329 ng/mL; DN AUC0-t (dose-normalized) ([3]; Day 1, 10.8 mg/day (6%)): 386 (ng*h/mL)/(mg); C1 (peak concentration following 1st instillation) ([3]; Day 7, 0.9 mg/day (0.5%)): 20.3 ng/mL; C2 (peak concentration following 2nd instillation) ([3]; Day 7, 0.9 mg/day (0.5%)): 16.3 ng/mL; C3 (peak concentration following 3rd instillation) ([3]; Day 7, 0.9 mg/day (0.5%)): 37.5 ng/mL; DN AUC0-t (dose-normalized) ([3]; Day 7, 0.9 mg/day (0.5%)): 164 (ng*h/mL)/(mg)
